Calls of active or inactive are those of the source.
Legend:
[1] = Late stage assay provider results from the probe development effort to identify inhibitors of the Plasmodium falciparum M18 Aspartyl Aminopeptidase (M18AAP): radiolabel-based cell-based dose response assay to identify compounds that inhibit P. falciparum growth in RBCs, Set 2..; assay type: functional
[2] = target: Fructose-bisphosphate aldolase (Mycobacterium tuberculosis, UniProt P9WQA3); assay: Fluorescence-based biochemical high throughput dose response assay for inhibitors of the fructose-bisphosphate aldolase (FBA) of M. tuberculosis.; assay type: functional
Fructose-bisphosphate aldolase, sequence (P9WQA3 whole entry): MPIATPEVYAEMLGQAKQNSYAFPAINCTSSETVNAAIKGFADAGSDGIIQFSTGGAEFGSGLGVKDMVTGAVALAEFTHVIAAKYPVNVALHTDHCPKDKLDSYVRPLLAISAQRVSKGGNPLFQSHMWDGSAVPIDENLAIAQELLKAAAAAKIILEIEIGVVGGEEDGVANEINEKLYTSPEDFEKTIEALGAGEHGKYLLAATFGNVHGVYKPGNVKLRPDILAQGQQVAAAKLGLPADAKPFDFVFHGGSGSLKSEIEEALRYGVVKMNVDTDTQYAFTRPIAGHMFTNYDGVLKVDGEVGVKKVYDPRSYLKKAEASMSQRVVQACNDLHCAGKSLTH

[3] = T. cruzi growth inhibition in host cells, dose response, cell-based, plate reader, dry powder, set 2 (AID 652275); assay type: functional
[4] = Trypanosoma cruzi growth suppression in host cells – NIH3T3 host cells, beta-gal luminescence, confirmation (AID 2044); assay type: functional, cell-based;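 further: intracellular parasites grown in NIH/3T3 mouse fibroblasts as host cells; luminescent beta-galactosidase reporter signal from transgenic T. cruzi replicating inside host cells; inhibitors lower the luminescence signal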
[5] = potency of ADAM10 substrate cleavage blockers – biochemical, QFRET, dose response (AID 743254);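 further: ADAM10 enzyme with the DM2 quenched FRET peptide as substrate; EDANS fluorescence gain as the protease cuts the substrate; inhibitor potency against ADAM10 proteolytic activity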
[6] = NIH3T3 cell viability loss – ATP luminescence, mouse fibroblasts, counter-screen, dose response (AID 2010); assay type: functional, cell-based;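 further: cells exposed to compound for about 90 hours before reading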
[7] = Luminescence Cell-Based Dose Retest to Confirm Inhibitors of Cancer Stem Cells. [Related pubchem assays (depositor defined):AID2717, AID2721]; assay type: functional; conditions: Homo sapiens
[8] = target: Disintegrin and metalloproteinase domain-containing protein 17 (Homo sapiens, UniProt P78536); assay: inhibition of ADAM17 substrate cleavage – biochemical, quenched FRET substrate, counter-screen for ADAM10 exosite inhibitor project, dose response (AID 743253)
Disintegrin and metalloproteinase domain-containing protein 17, sequence (P78536 whole entry, the tested form may be a part): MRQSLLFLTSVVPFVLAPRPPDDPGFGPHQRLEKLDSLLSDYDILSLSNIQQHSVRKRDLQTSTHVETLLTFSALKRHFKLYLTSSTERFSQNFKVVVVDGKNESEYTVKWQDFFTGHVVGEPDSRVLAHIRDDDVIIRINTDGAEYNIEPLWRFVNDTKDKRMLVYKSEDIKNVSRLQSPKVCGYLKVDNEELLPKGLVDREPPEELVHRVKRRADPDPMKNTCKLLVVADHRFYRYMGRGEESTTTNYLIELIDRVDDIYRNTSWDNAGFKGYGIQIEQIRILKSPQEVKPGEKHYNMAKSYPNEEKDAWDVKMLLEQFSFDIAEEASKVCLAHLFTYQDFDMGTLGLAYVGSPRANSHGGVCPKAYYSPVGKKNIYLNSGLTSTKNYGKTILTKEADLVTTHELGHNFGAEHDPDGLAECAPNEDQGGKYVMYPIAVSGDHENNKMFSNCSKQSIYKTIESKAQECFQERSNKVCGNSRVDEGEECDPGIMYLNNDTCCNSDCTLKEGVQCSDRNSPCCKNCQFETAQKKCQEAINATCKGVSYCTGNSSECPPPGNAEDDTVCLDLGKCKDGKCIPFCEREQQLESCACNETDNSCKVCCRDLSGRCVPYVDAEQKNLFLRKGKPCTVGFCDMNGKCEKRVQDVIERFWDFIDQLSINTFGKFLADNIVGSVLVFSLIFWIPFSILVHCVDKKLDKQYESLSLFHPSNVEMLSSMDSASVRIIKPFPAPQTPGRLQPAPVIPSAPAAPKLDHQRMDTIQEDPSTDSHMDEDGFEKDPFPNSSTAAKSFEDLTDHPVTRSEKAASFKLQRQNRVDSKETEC

[9] = target: T1, Mannose-6-phosphate isomerase (Homo sapiens, UniProt P34949); assay: MPI enzyme activity inhibition – biochemical, fluorescence intensity, coupled assay, primary screen (AID 1209)
T1 sequence (P34949 whole entry): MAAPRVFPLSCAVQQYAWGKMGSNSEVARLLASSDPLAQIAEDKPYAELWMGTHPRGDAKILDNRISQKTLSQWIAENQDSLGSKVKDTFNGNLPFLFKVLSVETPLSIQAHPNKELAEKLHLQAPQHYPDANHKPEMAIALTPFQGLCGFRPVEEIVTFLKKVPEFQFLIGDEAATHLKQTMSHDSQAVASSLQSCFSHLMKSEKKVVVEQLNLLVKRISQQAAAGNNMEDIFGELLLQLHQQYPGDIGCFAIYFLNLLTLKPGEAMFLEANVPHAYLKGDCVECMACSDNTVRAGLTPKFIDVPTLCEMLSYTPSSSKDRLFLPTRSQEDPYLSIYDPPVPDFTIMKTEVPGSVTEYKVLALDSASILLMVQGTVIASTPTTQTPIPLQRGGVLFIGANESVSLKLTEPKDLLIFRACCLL

[10] = target: T1, Mannose-6-phosphate isomerase; assay: MPI inhibition at elevated mannose 6-phosphate – biochemical, fluorescence intensity, high mannose 6-phosphate, primary screen (AID 1220)
fMet-Leu-Phe receptor = fMet-Leu-Phe receptor (Homo sapiens, UniProt P21462); assay: formyl peptide receptor binders – dose response (AID 519); assay type: functional
fMet-Leu-Phe receptor, sequence (P21462 whole entry): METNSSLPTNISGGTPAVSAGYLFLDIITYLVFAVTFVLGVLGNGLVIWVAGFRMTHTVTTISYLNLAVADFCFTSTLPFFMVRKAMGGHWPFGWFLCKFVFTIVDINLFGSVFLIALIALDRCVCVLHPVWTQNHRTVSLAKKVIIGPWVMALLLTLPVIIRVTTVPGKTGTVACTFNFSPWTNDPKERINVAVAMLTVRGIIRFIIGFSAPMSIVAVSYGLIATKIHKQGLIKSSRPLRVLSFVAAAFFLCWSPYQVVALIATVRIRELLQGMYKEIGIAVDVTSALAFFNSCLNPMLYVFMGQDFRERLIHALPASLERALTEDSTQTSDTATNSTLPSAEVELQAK

[11] = target: G-protein coupled receptor 55 (Homo sapiens, UniProt Q9Y2T6); assay: inhibition of LPI-stimulated GPR55 beta-arrestin translocation – imaging, U2OS, beta-arrestin-GFP, LPI agonist, primary screen (AID 2013); assay type: functional;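 further: antagonist potency measured as reduced agonist-driven arrestin aggregation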
G-protein coupled receptor 55, sequence (Q9Y2T6 whole entry): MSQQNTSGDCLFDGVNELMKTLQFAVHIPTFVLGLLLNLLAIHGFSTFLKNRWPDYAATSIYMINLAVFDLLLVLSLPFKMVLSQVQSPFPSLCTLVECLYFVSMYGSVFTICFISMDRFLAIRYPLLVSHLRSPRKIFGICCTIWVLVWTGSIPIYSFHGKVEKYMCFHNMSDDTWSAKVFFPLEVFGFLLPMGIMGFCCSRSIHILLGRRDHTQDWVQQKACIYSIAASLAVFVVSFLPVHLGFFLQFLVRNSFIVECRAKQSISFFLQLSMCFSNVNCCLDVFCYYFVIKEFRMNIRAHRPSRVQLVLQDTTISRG

Estrogen receptor = target: T2, Estrogen receptor (Homo sapiens, UniProt P03372);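 further: potency for inhibiting coactivator peptide recruitment to the receptor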
T2 sequence (P03372 whole entry): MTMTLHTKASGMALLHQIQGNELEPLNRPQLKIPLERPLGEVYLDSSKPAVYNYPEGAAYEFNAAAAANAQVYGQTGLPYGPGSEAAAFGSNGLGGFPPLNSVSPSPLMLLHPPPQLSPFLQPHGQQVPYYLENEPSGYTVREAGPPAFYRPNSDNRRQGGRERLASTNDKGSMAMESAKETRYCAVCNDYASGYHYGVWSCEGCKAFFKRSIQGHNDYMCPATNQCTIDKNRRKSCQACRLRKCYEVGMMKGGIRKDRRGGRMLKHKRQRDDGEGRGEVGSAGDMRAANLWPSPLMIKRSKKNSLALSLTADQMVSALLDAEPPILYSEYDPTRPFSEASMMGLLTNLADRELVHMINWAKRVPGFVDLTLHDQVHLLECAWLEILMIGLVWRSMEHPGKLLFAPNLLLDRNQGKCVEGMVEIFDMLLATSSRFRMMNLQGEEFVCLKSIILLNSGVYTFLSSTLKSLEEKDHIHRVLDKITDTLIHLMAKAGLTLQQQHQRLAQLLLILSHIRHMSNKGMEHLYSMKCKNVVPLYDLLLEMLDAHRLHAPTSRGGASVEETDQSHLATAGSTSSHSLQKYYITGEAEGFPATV

Albumin = Albumin (Bos taurus, UniProt P02769); assay: Counterscreen for inhibitors of T-cell receptor (TCR)-CD3 interaction: Fluorescence-based biochemical high throughput dose response assay to identify inhibitors of T-cell receptor (TCR)-CD3 interaction using a TAMRA-labeled BSA probe.; assay type: functional
Albumin, sequence (P02769 whole entry): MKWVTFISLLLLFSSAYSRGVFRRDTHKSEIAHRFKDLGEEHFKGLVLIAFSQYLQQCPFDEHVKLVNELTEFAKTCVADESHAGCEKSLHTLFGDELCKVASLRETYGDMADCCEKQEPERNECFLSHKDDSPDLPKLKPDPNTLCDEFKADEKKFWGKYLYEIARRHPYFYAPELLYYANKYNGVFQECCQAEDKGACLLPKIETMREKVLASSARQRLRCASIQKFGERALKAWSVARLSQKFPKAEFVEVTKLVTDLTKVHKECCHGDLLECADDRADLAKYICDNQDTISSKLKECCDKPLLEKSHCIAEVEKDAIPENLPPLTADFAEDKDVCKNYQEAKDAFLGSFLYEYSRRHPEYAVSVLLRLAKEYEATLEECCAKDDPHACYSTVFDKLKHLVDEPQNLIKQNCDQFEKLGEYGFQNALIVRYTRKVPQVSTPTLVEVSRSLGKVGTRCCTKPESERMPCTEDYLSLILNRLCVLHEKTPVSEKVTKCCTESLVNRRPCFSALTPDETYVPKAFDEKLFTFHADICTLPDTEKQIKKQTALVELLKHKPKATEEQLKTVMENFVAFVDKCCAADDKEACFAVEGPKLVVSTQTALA

[12] = fluconazole-exposed Candida albicans growth modulators – fluorescence, retest, confirmation (AID 2467); assay type: functional, cell-based
[13] = NIH-3T3 fibroblast cytotoxicity, dose response, cytotoxicity control, cell-based, fluorescence, Alamar Blue, secondary assay (AID 2327); assay type: functional;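 further: NIH-3T3 mouse fibroblasts cultured with fluconazole at 8 µg/mL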
Caspase-6 = target: T3, Caspase-6 (Homo sapiens, UniProt P55212); assay: inhibition of CASP6 peptide cleavage – biochemical, VEID-R110 fluorescence, cherry-pick, dose response (AID 720632)
T3 sequence (P55212 whole entry): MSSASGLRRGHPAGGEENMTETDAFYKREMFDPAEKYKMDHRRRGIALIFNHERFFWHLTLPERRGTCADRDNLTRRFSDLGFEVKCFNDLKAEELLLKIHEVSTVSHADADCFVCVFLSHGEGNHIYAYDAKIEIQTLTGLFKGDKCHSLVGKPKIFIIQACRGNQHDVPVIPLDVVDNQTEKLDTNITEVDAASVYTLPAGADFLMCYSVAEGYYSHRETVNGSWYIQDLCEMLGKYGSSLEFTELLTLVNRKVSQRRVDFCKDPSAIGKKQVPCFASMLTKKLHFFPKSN

Protein Tat = target: T4, Protein Tat (Human immunodeficiency virus type 1 group M subtype B (isolate HXB2)(HIV-1), UniProt P04608); assay type: functional;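 further: tat binding to TAR RNA read out by fluorescence polarization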
T4 sequence (P04608 whole entry): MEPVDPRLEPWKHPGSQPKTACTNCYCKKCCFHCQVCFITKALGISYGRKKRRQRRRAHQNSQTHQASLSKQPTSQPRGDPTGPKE

Caspase-7 = target: T5, Caspase-7 (Homo sapiens, UniProt P55210); assay: caspase-7 enzyme inhibition, selectivity check – biochemical, DEVD-R110 fluorescence, cherry-pick, selectivity assay for caspase-6 inhibitor project, dose response (AID 743295); assay type: functional
T5 sequence (P55210 whole entry): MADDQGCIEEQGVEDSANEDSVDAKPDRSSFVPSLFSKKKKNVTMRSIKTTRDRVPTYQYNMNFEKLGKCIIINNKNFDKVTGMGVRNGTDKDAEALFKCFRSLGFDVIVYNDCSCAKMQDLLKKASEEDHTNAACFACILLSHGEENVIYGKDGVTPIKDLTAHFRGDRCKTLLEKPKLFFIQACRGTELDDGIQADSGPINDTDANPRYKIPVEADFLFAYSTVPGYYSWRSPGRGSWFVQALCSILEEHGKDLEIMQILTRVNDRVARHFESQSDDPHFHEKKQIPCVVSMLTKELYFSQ

Caspase-8 = Caspase-8 (Homo sapiens, UniProt Q14790); assay: inhibitors of purified CASP8 protease – biochemical, Z-IETD-R110 fluorescence, cherry-picked samples, selectivity assay for caspase-6 inhibitor project, dose response (AID 743294)
Caspase-8, sequence (Q14790 217-374 limits assumed): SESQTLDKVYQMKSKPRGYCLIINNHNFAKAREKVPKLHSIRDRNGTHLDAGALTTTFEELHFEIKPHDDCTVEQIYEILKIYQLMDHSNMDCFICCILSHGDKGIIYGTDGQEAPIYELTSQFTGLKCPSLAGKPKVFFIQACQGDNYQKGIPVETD
Caspase-8, sequence (Q14790 385-479 limits assumed): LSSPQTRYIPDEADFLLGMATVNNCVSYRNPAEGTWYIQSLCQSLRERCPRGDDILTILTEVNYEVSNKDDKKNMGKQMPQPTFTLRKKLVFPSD

[14] = target: T6, Neuropeptides B/W receptor type 1 (Homo sapiens, UniProt P48145); assay: Fluorescence-based dose response cell-based high throughput screening assay to identify antagonists of the G-protein coupled receptor 7 (GPR7). [Related pubchem assays: 1952 (Screening assay (GPR7 antagonists).), 1880 (Summary AID.)]; assay type: functional
T6 sequence (P48145 whole entry): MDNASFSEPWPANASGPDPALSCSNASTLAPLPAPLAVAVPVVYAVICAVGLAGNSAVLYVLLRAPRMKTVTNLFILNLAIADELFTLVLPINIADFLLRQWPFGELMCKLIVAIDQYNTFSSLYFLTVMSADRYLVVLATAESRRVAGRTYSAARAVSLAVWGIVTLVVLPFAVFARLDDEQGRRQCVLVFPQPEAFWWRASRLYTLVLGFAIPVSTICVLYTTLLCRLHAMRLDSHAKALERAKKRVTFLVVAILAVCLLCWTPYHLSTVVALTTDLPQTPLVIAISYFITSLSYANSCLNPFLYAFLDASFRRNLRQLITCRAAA

[15] = target: Melanin-concentrating hormone receptor 1 (Homo sapiens, UniProt Q99705); assay: Fluorescence-based counterscreen for antagonists of the G-protein coupled receptor 7 (GPR7): cell-based high throughput dose response assay to identify antagonists of the melanin-concentrating hormone receptor 1 (MCHR1).; assay type: functional
Melanin-concentrating hormone receptor 1, sequence (Q99705 whole entry): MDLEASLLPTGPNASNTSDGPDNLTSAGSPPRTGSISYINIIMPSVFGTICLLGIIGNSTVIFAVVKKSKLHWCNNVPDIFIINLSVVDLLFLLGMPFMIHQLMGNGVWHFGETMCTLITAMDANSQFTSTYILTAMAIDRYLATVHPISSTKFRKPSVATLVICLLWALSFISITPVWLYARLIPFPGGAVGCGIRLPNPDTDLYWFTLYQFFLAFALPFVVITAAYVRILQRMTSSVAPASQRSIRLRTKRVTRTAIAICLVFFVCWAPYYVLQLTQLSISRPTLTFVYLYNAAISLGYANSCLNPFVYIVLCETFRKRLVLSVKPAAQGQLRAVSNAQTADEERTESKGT

[16] = target: Vascular endothelial growth factor receptor 2 (Homo sapiens, UniProt P35968); assay type: functional
Vascular endothelial growth factor receptor 2, sequence (P35968 whole entry): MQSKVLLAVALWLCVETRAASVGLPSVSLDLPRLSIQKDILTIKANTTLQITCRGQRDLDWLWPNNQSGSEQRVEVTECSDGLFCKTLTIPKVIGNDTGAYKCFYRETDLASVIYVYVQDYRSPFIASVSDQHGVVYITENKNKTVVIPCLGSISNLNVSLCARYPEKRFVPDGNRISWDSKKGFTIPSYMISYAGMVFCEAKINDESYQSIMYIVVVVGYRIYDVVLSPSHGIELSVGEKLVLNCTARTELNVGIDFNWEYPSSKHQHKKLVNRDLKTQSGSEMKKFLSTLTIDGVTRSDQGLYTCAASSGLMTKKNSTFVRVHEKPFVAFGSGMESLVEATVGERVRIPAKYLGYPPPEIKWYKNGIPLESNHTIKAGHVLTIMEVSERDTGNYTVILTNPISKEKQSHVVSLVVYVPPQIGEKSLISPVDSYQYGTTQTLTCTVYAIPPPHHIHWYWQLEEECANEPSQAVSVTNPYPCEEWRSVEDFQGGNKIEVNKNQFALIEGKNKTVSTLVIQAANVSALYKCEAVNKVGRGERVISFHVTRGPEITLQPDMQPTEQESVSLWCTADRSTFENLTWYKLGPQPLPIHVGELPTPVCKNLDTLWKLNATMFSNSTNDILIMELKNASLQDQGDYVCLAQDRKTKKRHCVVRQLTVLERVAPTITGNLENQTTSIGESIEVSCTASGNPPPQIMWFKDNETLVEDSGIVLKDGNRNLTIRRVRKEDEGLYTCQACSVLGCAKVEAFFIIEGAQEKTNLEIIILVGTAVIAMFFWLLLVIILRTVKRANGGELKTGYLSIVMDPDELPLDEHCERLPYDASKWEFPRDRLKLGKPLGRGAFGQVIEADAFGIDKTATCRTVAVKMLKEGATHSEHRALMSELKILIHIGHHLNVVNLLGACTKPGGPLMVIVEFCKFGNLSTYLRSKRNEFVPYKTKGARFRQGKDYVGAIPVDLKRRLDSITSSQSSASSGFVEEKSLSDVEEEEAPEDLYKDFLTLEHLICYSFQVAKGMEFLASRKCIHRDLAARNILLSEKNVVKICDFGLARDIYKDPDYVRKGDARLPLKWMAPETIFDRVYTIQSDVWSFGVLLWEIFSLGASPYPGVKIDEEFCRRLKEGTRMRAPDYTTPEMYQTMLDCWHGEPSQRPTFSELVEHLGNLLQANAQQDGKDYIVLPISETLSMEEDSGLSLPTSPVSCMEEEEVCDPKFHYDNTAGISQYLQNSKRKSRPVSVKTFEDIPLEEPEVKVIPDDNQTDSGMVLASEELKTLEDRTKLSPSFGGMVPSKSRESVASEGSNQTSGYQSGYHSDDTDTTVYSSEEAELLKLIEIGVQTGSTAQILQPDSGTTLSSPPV

[17] = target: Rho-associated protein kinase 1 (Homo sapiens, UniProt Q13464); assay type: functional;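 further: measured within a broad kinome-wide panel profiling many kinases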
[18] = MITF Orthogonal Assay: SK-MEL-5 CTG Assay Measured in Cell-Based System Using Plate Reader - 2084-02_Inhibitor_Dose_DryPowder_Activity_Set7.; assay type: functional
[19] = MITF: Counter assay: A375 proliferation Measured in Cell-Based System Using Plate Reader - 2084-03_Inhibitor_Dose_DryPowder_Activity_Set8.; assay type: functional; conditions: A-375
[20] = viability loss in THP-1 monocytes – THP-1 cells, cytotoxicity control for Vif-APOBEC3G degradation inhibitor project, dose response (AID 1117359); assay type: functional; conditions: THP-1
[21] = target: T7, DNA repair protein RAD52 homolog (Homo sapiens, UniProt P43351); assay type: functional, biochemical
T7 sequence (P43351 whole entry): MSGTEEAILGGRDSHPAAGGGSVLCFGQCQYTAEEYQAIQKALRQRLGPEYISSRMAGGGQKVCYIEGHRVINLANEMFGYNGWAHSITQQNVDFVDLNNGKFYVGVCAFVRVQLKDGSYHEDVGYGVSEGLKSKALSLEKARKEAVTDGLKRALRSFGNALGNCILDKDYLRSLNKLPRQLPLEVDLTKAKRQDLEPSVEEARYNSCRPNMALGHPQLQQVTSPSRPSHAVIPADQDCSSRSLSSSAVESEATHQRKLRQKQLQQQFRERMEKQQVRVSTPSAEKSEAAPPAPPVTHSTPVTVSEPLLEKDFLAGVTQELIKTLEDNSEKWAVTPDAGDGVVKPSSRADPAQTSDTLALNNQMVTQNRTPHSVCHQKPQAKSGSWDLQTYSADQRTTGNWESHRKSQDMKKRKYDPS

cells [22] = assay type: functional
cells [23] = assay type: functional, cell-based
[24] = Vero E6 cell cytotoxicity, dose response, cytotoxicity control for non-replicating M. tuberculosis project, secondary assay (AID 492998); assay type: functional, VeroE6; conditions: Vero C1008
[25] = THP-1 cell cytotoxicity, dose response, cytotoxicity control for non-replicating M. tuberculosis project (AID 489025); assay type: functional
cells [26] = assay type: functional, cell-based; remark: listed apart in the source

Compound: Oc1cccc(CCNc2ccnc3ccccc23)c1O
- IC50 [1]: 2.7 µM (active)

Compound: COc1ccccc1N1C(=O)NC(=O)/C(=C/c2ccc3c4c(cccc24)CC3)C1=O
- IC50 [2]: 2.23 µM (active)

Compound: Cc1cccc(-c2ccc([C@H]3[C@H](CO)N4CCCCN(C(=O)c5ccncc5)C[C@@H]34)cc2)c1
- AC50 [3]: 2.46 µM (active)

Compound: OC(COCC(F)(F)C(F)(F)C(F)(F)C(F)F)Cn1c2ccccc2c2ccccc21 (configuration not stated)
- EC50 [4]: 1.71 µM (active)
- IC50 [5]: > 7.73 µM (active)
- EC50 [6]: > 60 µM (inconclusive)
- AC50 [7]: 2.9 µM (active)
- IC50 [8]: > 69.5 µM (inactive)

Compound: Cn1ncc2c(NNC(=O)c3ccc(Cl)cc3Cl)ncnc21
- IC50 [9]: > 50 µM (not active)
- IC50 [10]: > 50 µM (not active)

Compound: CCCCn1c(NC(=O)CC)c(C#N)c2nc3ccccc3nc21
- Ki (fMet-Leu-Phe receptor): 24.2 µM (inactive)
- IC50 [11]: 1.55 µM (active)
- IC50 (Estrogen receptor): 23.4 µM (active)

Compound: Cc1ccc(C(=O)NNC(=O)c2cc3ccccc3cc2O)cc1
- IC50 (Albumin): > 94.1 µM (inactive)
- EC50 [12]: 3.16 µM (active)
- EC50 [13]: > 160 µM (inactive)

Compound: COc1ccc(NC(=O)CN(C)C(=O)c2cccc(-n3cccc3)c2)cc1
- AC50 (Caspase-6): 4.5 µM (active)
- IC50 (Protein Tat): > 100 µM (active)
- AC50 (Caspase-7): > 70 µM (inactive)
- AC50 (Caspase-8): 61.2 µM (active)

Compound: NCCNc1c2ccccc2nc2ccccc12
- IC50 [1]: 0.5 µM (active)

Compound: CN(C(=O)CN1C(=O)C2C3CC(C(Br)C3Br)C2C1=O)C1CCCCC1 (configuration not stated)
- IC50 [14]: 13.4 µM (not active)
- IC50 [15]: > 43.8 µM (not active)

Compound: Oc1cc(O)cc(C=Cc2ccc(O)c(O)c2)c1
- Ki [16]: > 2.51 µM (inactive)
- AC50 (Caspase-6): 1.2 µM (active)
- Ki [17]: 2.51 µM (active)
- AC50 (Caspase-7): > 70 µM (inactive)
- AC50 (Caspase-8): > 70 µM (inactive)

Compound: CC(C)N1C[C@H](C)[C@@H](CN(C)Cc2ccc(Oc3ccccc3)cc2)Oc2c(cccc2-c2cn(-c3ccncc3)nn2)C1=O
- AC50 [3]: 0.0204 µM (active)

Compound: O=C1C=C(Nc2ccc3ccccc3c2)C(=O)c2ccccc21
- AC50 [18]: 1.65 µM (active)
- AC50 [19]: 49.4 µM (active)

Compound: CC(=O)NN1C(=O)/C(=C\c2ccc(Br)o2)SC1=S
- CC50 [20]: > 40 µM (active)

Compound: C=CCC[C@H](Cc1ccc(F)cc1)C(=O)OC[C@@H](Cc1c[nH]c2ccccc12)NC(=O)[C@@H](CC=C)CC(=O)N(CCO)Cc1ccccc1
- IC50 [5]: > 69.5 µM (inactive)
- AC50 [7]: 4.62 µM (active)
- IC50 [8]: > 69.5 µM (inactive)

Compound: Cc1ccc(C)c(N(C(=O)c2snc(C(N)=O)c2N)C(C(=O)NCC2CCCO2)c2cccs2)c1 (configuration not stated)
- IC50 [2]: > 1.11 µM (active)

Compound: Cc1cc(N/N=C/c2ccccc2O)c2ccccc2n1
- AC50 [21]: 5.36 µM (active)
- IC50 (cells [22]): 7.92 µM (active)
- IC50 (cells [23]): > 29.9 µM (inactive)
- CC50 [24]: 17.6 µM (active)
- CC50 [25]: 25.6 µM (active)
- EC50 (cells [26]): > 29.9 µM (inactive)
